The source of these data is patent US20150315188A1, “COMPOUNDS AND METHODS FOR TREATMENT OF HYPERTENSION” (MEDIVATION TECHNOLOGIES, INC., priority 2012, published 2015).

Each structure is given as a SMILES string.

Common to all, as to set-up: purchased Milipore (Millipore)
Test [1] has as its target T1, Human adrenergic α1B receptor (Homo sapiens, UniProt P35368).
T1 sequence (P35368 1-520): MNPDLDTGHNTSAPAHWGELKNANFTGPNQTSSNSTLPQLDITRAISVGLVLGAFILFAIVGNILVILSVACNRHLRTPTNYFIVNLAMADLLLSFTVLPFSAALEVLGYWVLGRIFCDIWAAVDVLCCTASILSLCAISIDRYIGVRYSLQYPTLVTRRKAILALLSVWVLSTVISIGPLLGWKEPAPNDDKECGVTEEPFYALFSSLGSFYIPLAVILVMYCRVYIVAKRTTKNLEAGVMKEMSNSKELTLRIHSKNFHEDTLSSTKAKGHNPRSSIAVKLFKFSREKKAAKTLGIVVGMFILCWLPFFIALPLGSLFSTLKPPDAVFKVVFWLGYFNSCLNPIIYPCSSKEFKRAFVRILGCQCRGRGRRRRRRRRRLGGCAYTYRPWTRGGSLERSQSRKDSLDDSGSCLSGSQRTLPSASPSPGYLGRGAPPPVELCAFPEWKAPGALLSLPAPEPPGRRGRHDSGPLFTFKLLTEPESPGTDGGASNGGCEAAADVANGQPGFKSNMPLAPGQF
Put plainly: Radioligand binding, adrenergic α1B (Protocol Group B). The settings on record: Protocol Group B; for Percentage inhibition of ligand binding, Adrenergic α1B (0.1 μM): 0.1 μM compound. A digest of the protocol:
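Recombinant human α1B membranes incubated with test compound and 0.3 nM [3H]prazosin, 60 min at 25 °C, in 50 mM Tris-HCl pH 7.4, 10 mM MgCl2, 1 mM EDTA; nonspecific binding with 10 μM prazosin. Filter-bound radioactivity counted; values are % inhibition of specific binding or estimated Ki.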

The target of test [2] is T2, Human adrenergic α2B receptor (Homo sapiens, UniProt P18089).
T2 sequence (P18089 1-450): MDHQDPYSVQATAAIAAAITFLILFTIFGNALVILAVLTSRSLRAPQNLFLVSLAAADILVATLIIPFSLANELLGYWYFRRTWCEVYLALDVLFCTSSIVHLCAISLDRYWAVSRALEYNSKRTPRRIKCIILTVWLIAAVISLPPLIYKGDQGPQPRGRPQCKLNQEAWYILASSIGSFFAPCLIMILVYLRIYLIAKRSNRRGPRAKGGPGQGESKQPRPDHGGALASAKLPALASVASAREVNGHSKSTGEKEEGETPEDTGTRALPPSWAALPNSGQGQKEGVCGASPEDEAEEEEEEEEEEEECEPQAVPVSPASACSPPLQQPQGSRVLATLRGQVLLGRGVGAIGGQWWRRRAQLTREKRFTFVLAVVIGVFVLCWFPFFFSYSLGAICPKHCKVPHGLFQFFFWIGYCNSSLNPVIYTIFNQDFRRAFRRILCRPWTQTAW
Briefly: Radioligand binding, adrenergic α2B (Protocol Group B). Conditions: Protocol Group B; for Percentage inhibition of ligand binding, Adrenergic α2B (10 nM): 10 nM compound, 0.01 µM; for Percentage inhibition of ligand binding, Adrenergic α2B (30 nM): 30 nM compound, 0.03 µM. In a few lines: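 Recombinant human α2B receptor membranes incubated with compounds in 50 mM Tris-HCl pH 7.4, 5 mM MgCl2, 1 mM CaCl2, 0.2% BSA, 1% DMSO vehicle. Non-specific binding defined with 10 μM rauwolscine. Values are percent inhibition of specific binding or estimated Ki.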

The target in test [3] is T3, Human adrenergic α2A receptor (Homo sapiens, UniProt P08913).
T3 sequence (P08913 1-465): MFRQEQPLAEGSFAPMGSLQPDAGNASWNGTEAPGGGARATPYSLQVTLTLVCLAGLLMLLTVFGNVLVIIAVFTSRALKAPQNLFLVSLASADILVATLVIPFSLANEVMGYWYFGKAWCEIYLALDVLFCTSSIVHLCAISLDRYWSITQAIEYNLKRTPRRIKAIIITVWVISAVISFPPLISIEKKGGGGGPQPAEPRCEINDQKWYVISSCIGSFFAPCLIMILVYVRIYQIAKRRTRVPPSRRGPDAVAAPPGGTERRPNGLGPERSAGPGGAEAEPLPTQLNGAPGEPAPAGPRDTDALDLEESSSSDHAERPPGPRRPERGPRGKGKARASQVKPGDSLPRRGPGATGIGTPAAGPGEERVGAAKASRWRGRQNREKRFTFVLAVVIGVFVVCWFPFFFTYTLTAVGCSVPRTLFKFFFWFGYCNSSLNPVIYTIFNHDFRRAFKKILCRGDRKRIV
Put plainly: Radioligand binding, adrenergic α2A (Protocol Group B). Conditions: Protocol Group B; for Percentage inhibition of ligand binding, Adrenergic α2A (0.1 μM): 0.1 μM compound; for Percentage inhibition of ligand binding, Adrenergic α2A (0.3 μM): 0.3 μM compound. A digest of the protocol:
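Membranes from recombinant cells expressing the receptor, in 50 mM Tris-HCl pH 7.4 with 5 mM MgCl2, 1 mM CaCl2, 0.2% BSA; compounds incubated with 2 nM [^3H]MK-912 for 60 min at 25° C. Nonspecific binding defined by 10 μM rauwolscine; filtration, counting; percent inhibition of specific binding, or estimated Ki.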

Turning to `Cc1cc(F)c2c(c1)c1c(n2CC(C)(O)c2ccncc2)CC2CCCN2C1` (single isomer, unassigned) [62b], the “Percentage inhibition of ligand binding, Adrenergic α1B (0.1 μM)” value in test [1] is given as 2%. Also, the “Percentage inhibition of ligand binding, Adrenergic α1B (0.3 μM)” value in test [1] (0.3 μM compound) worked out at 21%. In addition, in test [2], the “Percentage inhibition of ligand binding, Adrenergic α2B (10 nM)” value (from here on “Percentage inhibition … (10 nM)”) turned out to be 12% and the “Percentage inhibition of ligand binding, Adrenergic α2B (30 nM)” value (“Percentage inhibition … (30 nM)” below) turned out to be 32%. The “Percentage inhibition of ligand binding, Adrenergic α2B (0.1 μM)” value in test [2] (0.1 μM compound) amounted to 62%. In test [3], the “Percentage inhibition of ligand binding, Adrenergic α2A (0.1 μM)” value worked out at 16% and the “Percentage inhibition of ligand binding, Adrenergic α2A (0.3 μM)” value worked out at 26%.

Consider `Cc1cc(F)c2c(c1)c1c(n2CC(C)(O)c2ccncc2)CC2CCCN2C1` (single isomer, unassigned) [62c], for which, in test [1], the “Percentage inhibition of ligand binding, Adrenergic α1B (0.1 μM)” value worked out at 10%. In addition, the “Percentage inhibition of ligand binding, Adrenergic α1B (0.3 μM)” value in test [1] (0.3 μM compound) is recorded as 15%. Also, in test [2], the “Percentage inhibition … (10 nM)” value is reported as 47% and the “Percentage inhibition … (30 nM)” value worked out at 52%. The “Percentage inhibition of ligand binding, Adrenergic α2B (0.1 μM)” value in test [2] (0.1 μM compound) turned out to be 65%. Further, in test [3], the “Percentage inhibition of ligand binding, Adrenergic α2A (0.1 μM)” value turned out to be 5% and the “Percentage inhibition of ligand binding, Adrenergic α2A (0.3 μM)” value was determined as 21%.

For `Cc1cc(F)c2c(c1)c1c(n2CC(C)(O)c2ccncc2)CC2CCCN2C1` (single isomer, unassigned) [62d], the “Percentage inhibition of ligand binding, Adrenergic α1B (0.1 μM)” value in test [1] was found to be 12%. In test [1] (0.3 μM compound), the “Percentage inhibition of ligand binding, Adrenergic α1B (0.3 μM)” value stood at 27%. Moreover, in test [2], the “Percentage inhibition … (10 nM)” value was determined as 21% and the “Percentage inhibition … (30 nM)” value is on record as 57%. For the same compound, in test [2] (0.1 μM compound), the “Percentage inhibition of ligand binding, Adrenergic α2B (0.1 μM)” value amounted to 82%. Moreover, in test [3], the “Percentage inhibition of ligand binding, Adrenergic α2A (0.1 μM)” value stood at 11% and the “Percentage inhibition of ligand binding, Adrenergic α2A (0.3 μM)” value is given as 25%.

With `CC(O)(Cn1c2c(c3cc(Cl)cc(F)c31)CN1CCCC1C2)c1cccnc1` (single isomer, unassigned) [63a], the “Percentage inhibition of ligand binding, Adrenergic α1B (0.1 μM)” value in test [1] was 2%. For the same compound, the “Percentage inhibition of ligand binding, Adrenergic α1B (0.3 μM)” value in test [1] (0.3 μM compound) stood at 24%. Besides, in test [2], the “Percentage inhibition … (10 nM)” value stood at 25% and the “Percentage inhibition … (30 nM)” value is on record as 55%. Moreover, the “Percentage inhibition of ligand binding, Adrenergic α2B (0.1 μM)” value in test [2] (0.1 μM compound) amounted to 84%. Moreover, in test [3], the “Percentage inhibition of ligand binding, Adrenergic α2A (0.1 μM)” value is recorded as 3% and the “Percentage inhibition of ligand binding, Adrenergic α2A (0.3 μM)” value was determined as 32%.

Regarding `CC(O)(Cn1c2c(c3cc(Cl)cc(F)c31)CN1CCCC1C2)c1cccnc1` (single isomer, unassigned) [63b], the “Percentage inhibition of ligand binding, Adrenergic α1B (0.1 μM)” value in test [1] was −1%. In test [1] (0.3 μM compound), the “Percentage inhibition of ligand binding, Adrenergic α1B (0.3 μM)” value was 1%. Moreover, in test [2], the “Percentage inhibition … (10 nM)” value is given as −6% and the “Percentage inhibition … (30 nM)” value is given as −3%. Besides, the “Percentage inhibition of ligand binding, Adrenergic α2B (0.1 μM)” value in test [2] (0.1 μM compound) was found to be 22%. Also, in test [3], the “Percentage inhibition of ligand binding, Adrenergic α2A (0.1 μM)” value was 0% and the “Percentage inhibition of ligand binding, Adrenergic α2A (0.3 μM)” value is on record as 13%.

In the case of `CC(O)(Cn1c2c(c3cc(Cl)cc(F)c31)CN1CCCC1C2)c1cccnc1` (single isomer, unassigned) [63d], the “Percentage inhibition of ligand binding, Adrenergic α1B (0.1 μM)” value in test [1] was −5%. The “Percentage inhibition of ligand binding, Adrenergic α1B (0.3 μM)” value in test [1] (0.3 μM compound) is on record as −4%. In test [2], the “Percentage inhibition … (10 nM)” value is recorded as −10% and the “Percentage inhibition … (30 nM)” value was 5%. For the same compound, in test [3], the “Percentage inhibition of ligand binding, Adrenergic α2A (0.1 μM)” value is listed as −13% and the “Percentage inhibition of ligand binding, Adrenergic α2A (0.3 μM)” value was −12%.

A word on the inhibition: it is the change of the read-out against control, counted positive when it falls. Turning to `CC(O)(Cn1c2c(c3cc(C(F)(F)F)ccc31)C1CCCN1CC2)c1cccnc1` (single isomer, unassigned) [64a], in test [1], the “Percentage inhibition of ligand binding, Adrenergic α1B (0.1 μM)” value is on record as 18%. Further, the inhibition at 0.3 µM in test [1] (0.3 μM compound, read-out: Percentage inhibition of ligand binding, Adrenergic α1B (0.3 μM)) was 47%. In test [2], the “Percentage inhibition … (10 nM)” value worked out at 73% and the “Percentage inhibition … (30 nM)” value turned out to be 91%. Besides, the inhibition at 0.1 µM in test [2] (0.1 μM compound, read-out: Percentage inhibition of ligand binding, Adrenergic α2B (0.1 μM)) was 96%. Besides, in test [3], the “Percentage inhibition of ligand binding, Adrenergic α2A (0.1 μM)” value worked out at 37% and the “Percentage inhibition of ligand binding, Adrenergic α2A (0.3 μM)” value was determined as 61%.
